Source: patent publication US11485731B2, “Compounds and methods useful in the treatment of a PRMT5-mediated disorder” (ARGONAUT THERAPEUTICS LIMITED, priority 2017, dated 2022)

Each molecule was assayed against human PRMT5/MEP50 (Homo sapiens (Human), UniProt O14744) (assay: PRMT5 chemiluminescent assay). Settings: human PRMT5/MEP50 expressed in HEK293 cells; biotinylated histone peptides; Histone H4 monomethyl R3 antibody; chemiluminescent readout.
Assay type: biochemical
Procedure: A PRMT5 chemiluminescent assay was used to measure the IC50 activity of PRMT5 of the compounds of Examples 1A to 7 above. Biotinylated histone peptides were synthesized and attached to 384-well plates. Compound serial dilutions were performed and added to the assay plate. Histone H4 monomethyl R3 antibody was obtained from Abcam. A master mix for each well was prepared and human PRMT5/MEP50 (expressed in HEK293 cells) diluted in assay buffer to a concentration of 5 ng/μL. The reaction was incubated and slowly rotated for 60 minutes at the point of PRMT5/MEP50 addition. The supernatant from the wells was removed and blocking buffer was added to each well and rotated for 10 minutes. The primary antibody was diluted and added to every well for 60 minutes, before it was removed and the wells washed. The horse raddish peroxidase (HRP)-coupled secondary antibody was diluted and added to each well with an incubation time of 30 minutes. The HRP chemiluminescent substrate was added to every well. The plate was read on a Flourstar Omega BMG Labtech instrument (Ortenberg, Germany) and the analysis of IC50 was performed using the Flourstar Omega BMG Labtech software.

Chain of human PRMT5/MEP50 (O14744 whole entry): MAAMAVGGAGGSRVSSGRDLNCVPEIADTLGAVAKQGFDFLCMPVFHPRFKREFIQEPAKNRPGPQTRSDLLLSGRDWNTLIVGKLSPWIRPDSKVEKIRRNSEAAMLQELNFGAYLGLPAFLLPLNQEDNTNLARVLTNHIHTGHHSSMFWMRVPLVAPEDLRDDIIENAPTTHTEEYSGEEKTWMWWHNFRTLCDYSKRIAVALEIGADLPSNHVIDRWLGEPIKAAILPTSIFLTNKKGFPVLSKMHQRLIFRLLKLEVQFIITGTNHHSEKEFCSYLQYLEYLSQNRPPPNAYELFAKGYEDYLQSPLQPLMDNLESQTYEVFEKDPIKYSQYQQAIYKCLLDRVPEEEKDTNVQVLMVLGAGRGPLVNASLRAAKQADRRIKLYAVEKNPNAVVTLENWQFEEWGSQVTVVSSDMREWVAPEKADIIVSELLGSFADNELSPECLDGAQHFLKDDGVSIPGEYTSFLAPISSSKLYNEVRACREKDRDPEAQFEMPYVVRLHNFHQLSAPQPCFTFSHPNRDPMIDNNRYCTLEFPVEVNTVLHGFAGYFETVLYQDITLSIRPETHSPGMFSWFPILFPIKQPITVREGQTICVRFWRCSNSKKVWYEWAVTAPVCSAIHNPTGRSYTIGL
Chain of human PRMT5/MEP50 (Q9BQA1 whole entry partner): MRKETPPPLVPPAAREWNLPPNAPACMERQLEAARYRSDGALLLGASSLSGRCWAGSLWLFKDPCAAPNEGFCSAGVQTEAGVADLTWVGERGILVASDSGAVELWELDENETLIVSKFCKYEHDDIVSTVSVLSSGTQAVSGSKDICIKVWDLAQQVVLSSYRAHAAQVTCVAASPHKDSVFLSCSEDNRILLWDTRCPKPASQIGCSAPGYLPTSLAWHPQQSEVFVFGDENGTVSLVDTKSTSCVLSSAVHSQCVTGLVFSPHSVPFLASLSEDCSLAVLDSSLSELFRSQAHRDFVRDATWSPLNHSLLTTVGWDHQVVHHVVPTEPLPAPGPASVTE

IC50 [nM]	Compound
72	O=C(NCC(O)CN1CCc2sccc2C1)N1CCC(c2ccccc2)C1 (stereo not drawn) [Example 1AE, N-(3-(6,7-dihydrothieno[3,2-c]pyridin-5(4H)-yl)-2-hydroxypropyl)-3-phenylpyrrolidine-1-carboxamide]
484	CC(=O)N1CCCN(C(=O)NC[C@H](O)CN2CCc3ccccc3C2)CC1 [Example 1AP, (S)-4-acetyl-N-(3-(3,4-dihydroisoquinolin-2(1H)-yl)-2-hydroxypropyl)-1,4-diazepane-1-carboxamide]
7390	O=C(NCC(O)CN1CCc2ccccc2C1)N1CC(C(=O)N2CCOCC2)C1 (stereo not drawn) [Example 1W, N-(3-(3,4-dihydroisoquinolin-2(1H)-yl)-2-hydroxypropyl)-3-(morpholine-4-carbonyl)azetidine-1-carboxamide]
939	O=C(NCCCN1CCc2ccccc2C1)N1CCC(c2ccccc2)C1 (stereo not drawn) [Example 6A, N-(3-(3,4-dihydroisoquinolin-2(1H)-yl)propyl)-3-phenyl pyrrolidine-1-carboxamide]
127	Cc1cc(C2CCCN(C(=O)NC[C@H](O)CN3CCc4ccccc4C3)C2)ccn1 (stereo partly drawn) [Example 1BT, N-((S)-3-(3,4-dihydroisoquinolin-2(1H)-yl)-2-hydroxypropyl)-3-(2-methylpyridin-4-yl)piperidine-1-carboxamide]
639	O=C(NCC(O)CN1CCc2ccsc2C1)N1CCCc2ccccc21 (stereo not drawn) [Example 1Z, N-(3-(4,7-dihydrothieno[2,3-c]pyridin-6(5H)-yl)-2-hydroxypropyl)-3,4-dihydroquinoline-1(2H)-carboxamide]
1640	O=C(NCC(O)CN1CCc2ccccc2C1)N1CCCCC1 (stereo not drawn) [Example 1L, N-[2-hydroxy-3-(1,2,3,4-tetrahydroisoquinolin-2-yl)propyl]piperidine-1-carboxamide]
81	O=C(OC[C@H](O)CN1CCc2ccccc2C1)N1CCC(c2ccccn2)C1 (stereo partly drawn) [Example 4R, (R)-3-(3,4-dihydroisoquinolin-2(1H)-yl)-2-hydroxypropyl 3-(pyridin-2-yl)pyrrolidine-1-carboxylate]
399	O=C(NC[C@H](O)CN1CCc2ccccc2C1)N1CCC(O)(c2ccccc2)C1 (stereo partly drawn) [Example 1BI, N-((S)-3-(3,4-dihydroisoquinolin-2(1H)-yl)-2-hydroxypropyl)-3-hydroxy-3-phenylpyrrolidine-1-carboxamide]
77	CS(=O)(=O)N1CCCN(C(=O)NC[C@H](O)CN2CCc3ccccc3C2)CC1 [Example 1AQ, (S)-N-(3-(3,4-dihydroisoquinolin-2(1H)-yl)-2-hydroxypropyl)-4-(methylsulfonyl)-1,4-diazepane-1-carboxamide]
51	O=C(NCC(O)CN1CCc2ccccc2C1)N1CCC(C(=O)N2CCOCC2)CC1 (stereo not drawn) [Example 1O, N-(3-(3,4-dihydroisoquinolin-2(1H)-yl)-2-hydroxypropyl)-4-(morpholine-4-carbonyl)piperidine-1-carboxamide]
17	O=C(NCC(O)CN1CCc2ccccc2C1)N1CCCCC(c2ccccc2)C1 (stereo not drawn) [Example 1CO, N-(3-(3,4-dihydroisoquinolin-2(1H)-yl)-2-hydroxypropyl)-3-phenylazepane-1-carboxamide]
25	O=C(OCC(O)CN1CCc2ccccc2C1)N1CCCC(Nc2ccncc2)C1 (stereo not drawn) [Example 4C, 3-(3,4-dihydroisoquinolin-2(1H)-yl)-2-hydroxypropyl 3-(pyridin-4-ylamino)piperidine-1-carboxylate]
384	O=C(NCC(O)CN1CCc2sccc2C1)N1CCCC(c2ccccc2)C1 (stereo not drawn) [Example 1AC, N-(3-(6,7-dihydrothieno[3,2-c]pyridin-5(4H)-yl)-2-hydroxypropyl)-3-phenylpiperidine-1-carboxamide]
9560	O=C(OCC(O)CN1CCc2ccccc2C1)N1CCCC1 (stereo not drawn) [Example 3C, 2-hydroxy-3-(1,2,3,4-tetrahydroisoquinolin-2-yl)propyl pyrrolidine-1-carboxylate]
57	O=C(NC[C@H](O)CN1CCc2ccccc2C1)N1CCCC(c2cccnc2)C1 (stereo partly drawn) [Example 1BV, N-((S)-3-(3,4-dihydroisoquinolin-2(1H)-yl)-2-hydroxypropyl)-3-(pyridin-3-yl)piperidine-1-carboxamide]
75	O=C(OCC(O)CN1CCc2ccccc2C1)N1CCC(C(=O)N2CCOCC2)CC1 (stereo not drawn) [Example 4B, 3-(3,4-dihydroisoquinolin-2(1H)-yl)-2-hydroxypropyl 4-(morpholine-4-carbonyl)piperidine-1-carboxylate]
223	O=C(OCC(O)CN1CCc2ccsc2C1)N1CCCC(c2ccccc2)C1 (stereo not drawn) [Example 4AD, 3-(4,7-dihydrothieno[2,3-c]pyridin-6(5H)-yl)-2-hydroxypropyl 3-phenylpiperidine-1-carboxylate]
192	O=C(OCC(O)CN1CCc2ccccc2C1)N1CCc2ccccc2C1 (stereo not drawn) [Example 3A, 3-(3,4-dihydroisoquinolin-2(1H)-yl)-2-hydroxypropyl 3,4-dihydroisoquinoline-2(1H)-carboxylate]
457	O=C(NCC(O)CN1CCc2ccccc2C1)N1CCC(c2ccccc2)CC1 (stereo not drawn) [Example 1F, N-[2-hydroxy-3-(1,2,3,4-tetrahydroisoquinolin-2-yl)propyl]-4-phenylpiperidine-1-carboxamide]
208	O=C(NCC(O)CN1CCc2ccccc2C1)N1CCc2ccccc2C1 (stereo not drawn) [Example 1I, N-[2-hydroxy-3-(1,2,3,4-tetrahydroisoquinolin-2-yl)propyl]-1,2,3,4-tetrahydroisoquinoline-2-carboxamide]
658	O=C(NC[C@H](O)CN1CCc2ccccc2C1)N1CCCN(C(=O)c2ccccc2)CC1 [Example 1AR, (S)-4-benzoyl-N-(3-(3,4-dihydroisoquinolin-2(1H)-yl)-2-hydroxypropyl)-1,4-diazepane-1-carboxamide]
49	O=C(OC[C@@H](O)CN1CCc2ccccc2C1)N1CCC(c2ccccc2)C1 (stereo partly drawn) [Example 4F, (S)-3-(3,4-dihydroisoquinolin-2(1H)-yl)-2-hydroxypropyl 3-phenylpyrrolidine-1-carboxylate]
448	O=C(OCC(O)CN1CCc2ccsc2C1)N1CCCc2ccccc21 (stereo not drawn) [Example 4Z, 3-(4,7-dihydrothieno[2,3-c]pyridin-6(5H)-yl)-2-hydroxypropyl 3,4-dihydroquinoline-1(2H)-carboxylate]
31200	O=C(NC[C@H](O)CN1CCc2ccccc2C1)N1CCC[S+]([O-])CC1 (stereo partly drawn) [Example 1AU, N-((S)-3-(3,4-dihydroisoquinolin-2(1H)-yl)-2-hydroxypropyl)-1,4-thiazepane-4-carboxamide 1-oxide]

Compound	IC50 [nM]
O=C(NC[C@H](O)CN1CCc2ccccc2C1)N1CCC[C@@H](c2ccccc2)C1 (single isomer, unassigned) [Example 5A, (S)-N-((S)-3-(3,4-dihydroisoquinolin-2(1H)-yl)-2-hydroxypropyl)-3-phenylpiperidine-1-carboxamide or (R)-N-((S)-3-(3,4-dihydroisoquinolin-2(1H)-yl)-2-hydroxypropyl)-3-phenylpiperidine-1-carboxamide]	26
O=C(NCC(O)CN1CCc2ccccc2C1)N1CCC(C(=O)N2C3CCC2COC3)CC1 (stereo not drawn) [Example 1R, 4-(3-oxa-8-azabicyclo[3.2.1]octane-8-carbonyl)-N-(3-(3,4-dihydroisoquinolin-2(1H)-yl)-2-hydroxypropyl)piperidine-1-carboxamide]	11
O=C(NC[C@H](O)CN1CCc2ccccc2C1)N1CCCSCC1 [Example 1AT, (S)-N-(3-(3,4-dihydroisoquinolin-2(1H)-yl)-2-hydroxypropyl)-1,4-thiazepane-4-carboxamide]	691
O=C(NCC(O)CN1CCc2ccccc2C1)N1CCCC(c2ccccc2)C1 (stereo not drawn) [Example 1E, N-[2-hydroxy-3-(1,2,3,4-tetrahydroisoquinolin-2-yl)propyl]-3-phenylpiperidine-1-carboxamide]	8
O=C(NC[C@H](O)CN1CCc2ccccc2C1)N1CCC(N2CCCSCC2)C1 (stereo partly drawn) [Example 1CF, N-((S)-3-(3,4-dihydroisoquinolin-2(1H)-yl)-2-hydroxypropyl)-3-(1,4-thiazepan-4-yl)pyrrolidine-1-carboxamide]	376
O=C(NC[C@@H](O)CN1CCc2ccccc2C1)N1CCC(C(=O)N2C3CCC2COC3)CC1 [Example 1BE, 4-(3-oxa-8-azabicyclo[3.2.1]octane-8-carbonyl)-N-((R)-3-(3,4-dihydroisoquinolin-2(1H)-yl)-2-hydroxypropyl)piperidine-1-carboxamide]	3080
O=C(NC[C@H](O)CN1CCc2ccccc2C1)N1CCC[C@H](C2CCOCC2)C1 (single isomer, unassigned) [Example 5G, (R)-N-((S)-3-(3,4-dihydroisoquinolin-2(1H)-yl)-2-hydroxypropyl)-3-(tetrahydro-2H-pyran-4-yl)piperidine-1-carboxamide compound or (S)-N-((S)-3-(3,4-dihydroisoquinolin-2(1H)-yl)-2-hydroxypropyl)-3-(tetrahydro-2H-pyran-4-yl)piperidine-1-carboxamide]	394
O=C(NC[C@H](O)CN1CCc2ccccc2C1)N1CCC[C@H](C2CCOCC2)C1 (single isomer, unassigned) [Example 5H, (R)-N-((S)-3-(3,4-dihydroisoquinolin-2(1H)-yl)-2-hydroxypropyl)-3-(tetrahydro-2H-pyran-4-yl)piperidine-1-carboxamide compound or (S)-N-((S)-3-(3,4-dihydroisoquinolin-2(1H)-yl)-2-hydroxypropyl)-3-(tetrahydro-2H-pyran-4-yl)piperidine-1-carboxamide]	511
